Legend:
[1] = target: T1, human type 2 5α-reductase (Homo sapiens, UniProt P31213); assay: 5α-reductase in vitro inhibitory activity, human type 2
T1 sequence (P31213 1-254): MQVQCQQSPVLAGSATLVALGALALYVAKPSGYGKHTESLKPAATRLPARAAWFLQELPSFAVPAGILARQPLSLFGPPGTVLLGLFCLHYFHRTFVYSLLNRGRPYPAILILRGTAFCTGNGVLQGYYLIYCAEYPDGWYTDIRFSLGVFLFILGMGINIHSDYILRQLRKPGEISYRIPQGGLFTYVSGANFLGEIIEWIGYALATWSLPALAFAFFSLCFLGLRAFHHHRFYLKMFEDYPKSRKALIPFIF
Protocol: Microsomes were prepared by homogenization of the tissue or cells, followed by differential centrifugation of the homogenate. […] Corresponding incubations were carried out with no test compound as a control study.
The percentage of conversion of testosterone to DHT in the presence of test compounds compared to the corresponding conversion in the control study was estimated using high pressure liquid chromatography (HPLC) with radiochemical detection.

[2] = target: T2, human type 1 5α-reductase (Homo sapiens, UniProt P18405); assay: 5α-reductase in vitro inhibitory activity, human type 1
T2 sequence (P18405 1-259): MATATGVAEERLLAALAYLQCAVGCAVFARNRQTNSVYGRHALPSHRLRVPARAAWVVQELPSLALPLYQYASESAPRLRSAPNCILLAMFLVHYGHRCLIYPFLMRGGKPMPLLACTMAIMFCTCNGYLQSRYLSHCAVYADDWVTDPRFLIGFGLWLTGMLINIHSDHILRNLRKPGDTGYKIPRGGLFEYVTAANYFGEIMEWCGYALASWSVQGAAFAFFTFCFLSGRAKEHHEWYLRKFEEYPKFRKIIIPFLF

Row | Structure (SMILES) | IC50 [1] [nM] | IC50 [2] [nM]
1 | CCOC(=O)c1ccc(NC(=O)[C@H]2CC[C@H]3[C@@H]4CNC5=CC(=O)CC[C@]5(C)[C@H]4CC[C@]23C)cc1 [Compound 134, 17β-N-(4-Carboethoxy)phenyl-carbamoyl-6-azaandrost-4-en-3-one] | < 10 | 10 to 100
2 | C[C@]12CC[C@H]3[C@@H](CNC4=CC(=O)CC[C@@]43C)[C@@H]1CC[C@@H]2C(=O)Nc1cc(C(F)(F)F)ccc1F [Compound 129] | < 10 | 10 to 100
3 | C[C@]12CC[C@H]3[C@@H](CNC4=CC(=O)CC[C@@]43C)[C@@H]1CC[C@@H]2C(=O)Nc1cccc(C#N)c1 [Compound 107, 17β-N-(3-Cyano)phenyl-carbamoyl-6-azaandrost-4-en-3-one] | < 10 | > 100
4 | CC(C)(C)c1ccc(C2(NC(=O)[C@H]3CC[C@H]4[C@@H]5CNC6=CC(=O)CC[C@]6(C)[C@H]5CC[C@]34C)CCSCC2)cc1 [Compound 143, 17β-N-4-(4-t-Butylphenyl)tetrahydrothiopyranyl-carbamoyl-6-azaandrost-4-en-3-one] | < 10 | < 10
5 | CC(C)c1cc(C(C)C)c(C(=O)[C@H]2CC[C@H]3[C@@H]4CNC5=CC(=O)CC[C@]5(C)[C@H]4CC[C@]23C)c(C(C)C)c1 [Compound 60, 17β-(1-Oxo-1-((2,4,6-tri-i-propyl)phenyl)methyl)-6-azaandrost-4-en-3-one] | 10 to 100 | > 100
6 | CCc1cccc(CC)c1NC(=O)[C@H]1CC[C@H]2[C@@H]3CNC4=CC(=O)CC[C@]4(C)[C@H]3CC[C@]12C [Compound 76, 17β-N-(2,6-Diethyl)phenyl-carbamoyl-6-azaandrost-4-en-3-one] | < 10 | 10 to 100
7 | C[C@]12CC[C@H]3[C@@H](CNC4=CC(=O)CC[C@@]43C)[C@@H]1CC[C@@H]2C(=O)NC1(c2ccc3c(c2)OCO3)CCCCC1 [Compound 124, 17β-N-1-(3,4-Methylenedioxyphenyl)cyclohexyl-carbamoyl-6-azaandrost-4-en-3-one] | < 10 | 10 to 100
8 | CC(C)(C)c1ccc(NC(=O)[C@H]2CC[C@H]3[C@@H]4CNC5=CC(=O)CC[C@]5(C)[C@H]4CC[C@]23C)c(Cl)c1 [Compound 72, 17β-N-(2-Chloro-4-t-butyl)phenyl-carbamoyl-6-azaandrost-4-en-3-one] | < 10 | 10 to 100
9 | CCC(CC)(NC(=O)[C@H]1CC[C@H]2[C@@H]3CNC4=CC(=O)CC[C@]4(C)[C@H]3CC[C@]12C)c1ccccc1 [Compound 103, 17β-N-(1-Ethyl-1-phenyl)propyl-carbamoyl-6-azaandrost-4-en-3-one] | < 10 | 10 to 100
10 | Cc1ccc(Oc2ccc(C(F)(F)F)cc2NC(=O)[C@H]2CC[C@H]3[C@@H]4CNC5=CC(=O)CC[C@]5(C)[C@H]4CC[C@]23C)cc1 [Compound 79, 17β-N-(2-(O-4-Tolyl)-5-trifluoromethyl)phenyl-carbamoyl-6-azaandrost-4-en-3-one] | < 10 | 10 to 100
11 | CC(C)(C)c1ccc(Cl)cc1NC(=O)[C@H]1CC[C@H]2[C@@H]3CNC4=CC(=O)CC[C@]4(C)[C@H]3CC[C@]12C [Compound 75, 17β-N-(5-Chloro-2-t-butyl)phenyl-carbamoyl-6-azaandrost-4-en-3-one] | < 10 | < 10
12 | CC(C)(C)c1ccccc1NC(=O)[C@H]1CC[C@H]2[C@@H]3CNC4=CC(=O)CC[C@]4(C)[C@H]3CC[C@]12C [Compound 56, 17β-N-(2-t-Butyl)phenyl-carbamoyl-6-azaandrost-4-en-3-one] | < 10 | 10 to 100
13 | CC(=O)NC[C@H]1CC[C@H]2[C@@H]3CNC4=CC(=O)CC[C@]4(C)[C@H]3CC[C@]12C [Compound 97, 17β-Aminomethyl-(acetamide)-6-azaandrost-4-en-3-one] | 10 to 100 | > 100
14 | CC1=C2NC[C@H]3[C@@H]4CC[C@H](C(=O)Nc5cc(C(F)(F)F)ccc5C(C)(C)C)[C@@]4(C)CC[C@@H]3[C@@]2(C)CCC1=O [Compound 117, 17β-N-(2-t-Butyl-5-trifluoromethyl)phenyl-carbamoyl-6-azaandrost-4-methyl-4-en-3-one] | < 10 | < 10
15 | CC1=C2NC[C@H]3[C@@H]4CC[C@H](C(=O)Nc5cc(C(C)(C)C)ccc5C(C)(C)C)[C@@]4(C)CC[C@@H]3[C@@]2(C)CCC1=O [Compound 118, 17β-N-(2,5-Di-t-butyl)phenyl-carbamoyl-6-azaandrost-4-methyl-4-en-3-one] | < 10 | < 10
16 | C[C@]12CC[C@H]3[C@@H](CNC4=CC(=O)CC[C@@]43C)[C@@H]1CC[C@@H]2C(=O)Nc1c(Cl)cc(Cl)cc1Cl [Compound 58, 17β-N-(2,4,6-Trichloro)phenyl-carbamoyl-6-azaandrost-4-en-3-one] | < 10 | 10 to 100
17 | CC(C)(C)c1ccc(C2(NC(=O)[C@H]3CC[C@H]4[C@@H]5CNC6=CC(=O)CC[C@]6(C)[C@H]5CC[C@]34C)CCCC2)cc1 [Compound 121, 17β-N-1-(4-t-Butylphenyl)cyclopentyl-carbamoyl-6-azaandrost-4-en-3-one] | < 10 | < 10
18 | CCOC(=O)c1ccccc1NC(=O)[C@H]1CC[C@H]2[C@@H]3CNC4=CC(=O)CC[C@]4(C)[C@H]3CC[C@]12C [Compound 114, 17β-N-(2-Carboethoxy)phenyl-carbamoyl-6-azaandrost-4-en-3-one] | < 10 | 10 to 100
19 | CC1(C)Cc2ccccc2C1NC(=O)[C@H]1CC[C@H]2[C@@H]3CNC4=CC(=O)CC[C@]4(C)[C@H]3CC[C@]12C (stereo partly drawn) [Compound 110, 17β-N-1-(2,2-Dimethyl)indanyl-carbamoyl-6-azaandrost-4-en-3-one] | < 10 | 10 to 100
20 | CC1=C2NC[C@H]3[C@@H]4CC[C@H](C(=O)Nc5cc(C(F)(F)F)ccc5C(F)(F)F)[C@@]4(C)CC[C@@H]3[C@@]2(C)CCC1=O [Compound 116, 17β-N-(2,5-bis(Trifluoromethyl))phenyl-carbamoyl-6-azaandrost-4-methyl-4-en-3-one] | < 10 | < 10
21 | CCOc1ccc(OCC)c(NC(=O)[C@H]2CC[C@H]3[C@@H]4CNC5=CC(=O)CC[C@]5(C)[C@H]4CC[C@]23C)c1 [Compound 119, 17β-N-(2,5-Diethoxy)phenyl-carbamoyl-6-azaandrost-4-en-3-one] | < 10 | 10 to 100
22 | CC(C)(C)NC(=O)c1ccc(C(F)(F)F)cc1NC(=O)[C@H]1CC[C@H]2[C@@H]3CNC4=CC(=O)CC[C@]4(C)[C@H]3CC[C@]12C [Compound 142, 17β-N-(2-t-Butylcarbamoyl-5-trifluoromethyl)phenyl-carbamoyl-6-azaandrost-4-en-3-one] | < 10 | > 100
23 | CC(C)(C)c1ccc(NC(=O)[C@H]2CC[C@H]3[C@@H]4CNC5=CC(=O)CC[C@]5(C)[C@H]4CC[C@]23C)c([N+](=O)[O-])c1 [Compound 82, 17β-N-(2-Nitro-4-t-butyl)phenyl-carbamoyl-6-azaandrost-4-en-3-one] | < 10 | < 10
24 | CCN(CC)C(=O)c1ccc(C(C)(C)C)c(NC(=O)[C@H]2CC[C@H]3[C@@H]4CNC5=CC(=O)CC[C@]5(C)[C@H]4CC[C@]23C)c1 [Compound 105, 17β-N-(2-t-Butyl-5-N,N-diethylcarbamoyl)phenyl-carbamoyl-6-azaandrost-4-en-3-one] | < 10 | < 10
25 | CC(C)(NC(=O)[C@H]1CC[C@H]2[C@@H]3CNC4=CC(=O)CC[C@]4(C)[C@H]3CC[C@]12C)c1ccccc1 [Compound 63, 17β-N-(1-Methyl-1-phenyl)ethyl-carbamoyl-6-azaandrost-4-en-3-one] | < 10 | > 100
26 | CC1CCC(C(C)C)C(OC(=O)OC[C@H]2CC[C@H]3[C@@H]4CNC5=CC(=O)CC[C@]5(C)[C@H]4CC[C@]23C)C1 (stereo partly drawn) [Compound 89, 17β-Hydroxymethyl-(menthylcarbonate)-6-azaandrost-4-en-3-one] | < 10 | 10 to 100
27 | CC(C)(C)c1ccc(-c2ccc(Cl)cc2)cc1NC(=O)[C@H]1CC[C@H]2[C@@H]3CNC4=CC(=O)CC[C@]4(C)[C@H]3CC[C@]12C [Compound 120, 17β-N-(2-t-Butyl-5-(4-chlorophenyl))phenyl-carbamoyl-6-azaandrost-4-en-3-one] | < 10 | < 10
28 | C[C@]12CC[C@H]3[C@@H](CNC4=CC(=O)CC[C@@]43C)[C@@H]1CC[C@@H]2C(=O)Nc1ccccc1S(=O)(=O)c1ccccc1 [Compound 133, 17β-N-(2-Phenylsulfonyl)phenyl-carbamoyl-6-azaandrost-4-en-3-one] | < 10 | > 100
29 | C[C@]12CC[C@H]3[C@@H](CNC4=CC(=O)CC[C@@]43C)[C@@H]1CC[C@@H]2C(=O)Nc1cc(C(F)(F)F)cc(C(F)(F)F)c1 [Compound 57, 17β-N-(3,5-Ditrifluoromethyl)phenyl-carbamoyl-6-azaandrost-4-en-3-one] | 10 to 100 | 10 to 100
30 | CCC1(CC)CC1(NC(=O)[C@H]1CC[C@H]2[C@@H]3CNC4=CC(=O)CC[C@]4(C)[C@H]3CC[C@]12C)c1ccc(C(F)(F)F)cc1 (stereo partly drawn) [Compound 131, 17β-N-(1-(4-Trifluoromethylphenyl)-2,2-diethyl)cyclopropyl-carbamoyl-6-azaandrost-4-en-3-one] | < 10 | < 10
